Assay [1] concerns the target T1, human 11β-HSD1 (Homo sapiens, UniProt P28845).
T1 construct: 100 ug/ml human/mouse liver microsomes; from tissue; host or cells: human liver microsomes
Kind of assay: Enzyme activity analysis on human 11β-HSD1 (HTRF cortisol, liver microsomes). In kind it is biochemical. Particulars: first value of cell. Put shortly: (§1)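 Cortisol generated by mouse or human liver microsome 11β-HSD1 during 2 h at 37° C., measured by HTRF competition (cryptate anti-cortisol antibody, d2-cortisol, 2 h room temperature) against a cortisol standard curve. IC50 from percent inhibition versus no-compound control.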
(TR-FRET usually uses a lanthanide donor and a delayed reading to cut background.)

Assay [2] deals with T2, mouse 11β-HSD1 (Mus musculus, UniProt P50172).
T2 construct: 100 ug/ml human/mouse liver microsomes; from tissue; host or cells: mouse liver microsomes
T2 sequence (P50172 whole entry): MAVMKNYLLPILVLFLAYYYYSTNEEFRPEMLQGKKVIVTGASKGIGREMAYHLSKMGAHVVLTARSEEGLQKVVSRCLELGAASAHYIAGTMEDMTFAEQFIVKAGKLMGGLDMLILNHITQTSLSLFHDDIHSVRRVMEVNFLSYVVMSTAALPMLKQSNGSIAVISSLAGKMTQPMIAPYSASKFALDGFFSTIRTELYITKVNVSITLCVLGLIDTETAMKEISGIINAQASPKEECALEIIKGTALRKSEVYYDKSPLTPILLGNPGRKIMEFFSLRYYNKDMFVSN
Kind of assay: Enzyme activity analysis on mouse 11β-HSD1 (HTRF cortisol, liver microsomes). In kind it is biochemical. Particulars: second value of cell. The method in brief:
as §1

Consider 32 compounds from patent US9073830B2 (Hyundai Pharm Co., Ltd., priority 2011, dated 2015).

Each structure is given as a SMILES string.

What is called IC50 is the concentration that gives 50% inhibition. A higher IC50 goes with lower potency.

T1 sequence (P28845 whole entry): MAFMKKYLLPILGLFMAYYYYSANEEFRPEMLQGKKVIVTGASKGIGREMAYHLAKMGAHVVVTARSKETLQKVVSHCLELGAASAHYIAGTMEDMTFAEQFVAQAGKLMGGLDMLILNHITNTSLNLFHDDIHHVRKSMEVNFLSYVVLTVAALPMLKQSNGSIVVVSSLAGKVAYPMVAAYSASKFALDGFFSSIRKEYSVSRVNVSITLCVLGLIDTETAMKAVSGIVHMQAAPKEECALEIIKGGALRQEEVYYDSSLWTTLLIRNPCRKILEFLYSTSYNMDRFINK

Consider `O=C(NC1C2CC3CC(C2)CC1C3)C1(NS(=O)(=O)c2ccccc2OC(F)(F)F)CCC1` (stereo not shown) [compound 144, N-(adamantane-2-yl)-1-(2-trifluoromethoxyphenylsulfonamido)cyclobutanecarboxyamide], for which the IC50 in assay [1] came to 0.265 µM; in assay [2], 1.82 µM.

For `CC(C)(NS(=O)(=O)c1ccccc1N)C(=O)NC1C2CC3CC1CC(C(N)=O)(C3)C2` (stereo not shown) [compound 219, N-4-(2-(2-aminophenylsulfonamido)-2-methylpropanamido)adamantane-1-carboxyamide], the IC50 in assay [1] came out at 0.085 µM; in assay [2] it was 0.117 µM.

In the case of `NC(=O)C12CC3CC(C1)C(NC(=O)C1(NS(=O)(=O)c4cccc(Cl)c4Cl)CCCCC1)C(C3)C2` (stereo not shown) [compound 183, N-4-(1-(2,3-dichlorophenylsulfonamido)cyclohexanecarboxyamido)adamantane-1-carboxyamide], the IC50 turned out to be 0.017 µM in assay [1] and 0.044 µM in assay [2].

Turning to `CC(C)(NS(=O)(=O)c1ccc(Cl)cc1)C(=O)NC1C2CC3CC(C2)CC1C3` (stereo not shown) [compound 5, N-(adamantane-2-yl)-2-methyl-2-(4-chlorophenylsulfonamido)propanamide], the results for the IC50 in assay [1] and in assay [2] were 0.43 µM and 1.05 µM, respectively.

Turning to `CC(C)(NS(=O)(=O)Cc1ccc(Cl)cc1)C(=O)NC1C2CC3CC(C2)CC1C3` (stereo not shown) [compound 33, N-(adamantane-2-yl)-2-methyl-2-((4-chlorophenyl)methylsulfonamido)propanamide], the IC50 in assay [1] amounted to 0.065 µM; in assay [2], 1.67 µM.

`CC(C)(NS(=O)(=O)c1ccc(C(F)(F)F)cc1)C(=O)NC1C2CC3CC(C2)CC1C3` (stereo not shown) [compound 37, N-(adamantane-2-yl)-2-methyl-2-(4-trifluoromethylphenylsulfonamido)propanamide]: the IC50 in assay [1] and in assay [2] was over 2.5 µM throughout.

For the compound `Cc1cccc(S(=O)(=O)NC(C)(C)C(=O)NC2C3CC4CC(C3)CC2C4)c1` (stereo not shown) [compound 28, N-(adamantane-2-yl)-2-methyl-2-(3-methylphenylsulfonamido)propanamide], the IC50 in assay [1] was determined as 0.133 µM; in assay [2], 0.437 µM.

Consider `COc1ccc(S(=O)(=O)NC(C)(C)C(=O)NC2C3CC4CC2CC(C(N)=O)(C4)C3)cc1[N+](=O)[O-]` (stereo not shown) [compound 111, N-4-(2-(3-nitro-4-methoxyphenylsulfonamido)-2-methylpropanamido)adamantane-1-carboxyamide], for which the IC50 was found to be 1.3 µM in assay [1] and 2.46 µM in assay [2].

Regarding `NC(=O)C12CC3CC(C1)C(NC(=O)C1(NS(=O)(=O)c4ccccc4Cl)CCC1)C(C3)C2` (stereo not shown) [compound 152, N-4-(1-(2-chlorophenylsulfonamido)cyclobutanecarboxyamido)adamantane-1-carboxyamide], the IC50 in assay [1] is 0.021 µM; in assay [2] it was 0.099 µM.

With `CN(C1(C(=O)NC2C3CC4CC2CC(C(N)=O)(C4)C3)CCC1)S(=O)(=O)c1ccccc1N` (stereo not shown) [compound 222, N-4-(1-(N-methyl-2-aminophenylsulfonamido)cyclobutanecarboxyamido)adamantane-1-carboxyamide], the IC50 is 0.005 µM in assay [1] and 0.004 µM in assay [2].

For the compound `NC(=O)C12CC3CC(C1)C(NC(=O)C1(NS(=O)(=O)c4cc(Cl)c(Cl)cc4Cl)CCC1)C(C3)C2` (stereo not shown) [compound 161, N-4-(1-(2,4,5-trichlorophenylsulfonamido)cyclobutanecarboxyamido)adamantane-1-carboxyamide], the values for the concentration for half-maximal inhibition (IC50) in assay [1] and in assay [2] were 0.052 µM and 0.428 µM, respectively.

With `CC(C)(NS(=O)(=O)c1ccc(F)cc1)C(=O)NC1C2CC3CC(C2)CC1C3` (stereo not shown) [compound 2, N-(adamantane-2-yl)-2-methyl-2-(4-fluorophenylsulfonamido)propanamide], the IC50 in assay [1] is 0.1 µM; in assay [2], 0.888 µM.

As for `Cc1ccccc1S(=O)(=O)N(C)C(C)(C)C(=O)NC1C2CC3CC1CC(C(N)=O)(C3)C2` (stereo not shown) [compound 196], the IC50 in assay [1] turned out to be 0.003 µM; in assay [2], 0.005 µM.

`COc1ccc(S(=O)(=O)NC(C)(C)C(=O)NC2C3CC4CC(C3)CC2C4)c(OC)c1` (stereo not shown) [compound 47, N-(adamantane-2-yl)-2-methyl-2-(2,4-dimethoxyphenylsulfonamido)propanamide]: the IC50 in assay [1] came to 0.082 µM; in assay [2], 1.92 µM.

For `NC(=O)C12CC3CC(C1)C(NC(=O)C1(NS(=O)(=O)c4ccccc4Br)CC1)C(C3)C2` (stereo not shown) [compound 131, N-4-(1-(2-bromophenylsulfonamido)cyclopropanecarboxyamido)adamantane-1-carboxyamide], the figures for the IC50 in assay [1] and in assay [2] were 0.008 µM and 0.048 µM, respectively.

With `CC(C)(NS(=O)(=O)c1cc(Cl)cc(Cl)c1)C(=O)NC1C2CC3CC(C2)CC1C3` (stereo not shown) [compound 26, N-(adamantane-2-yl)-2-methyl-2-(3,5-dichlorophenylsulfonamido)propanamide], the IC50 in assay [1] is 1.27 µM; in assay [2] it was over 2.5 µM.

As for `CC(C)(NS(=O)(=O)c1ccc(OC(F)(F)F)cc1)C(=O)NC1C2CC3CC(C2)CC1C3` (stereo not shown) [compound 4, N-(adamantane-2-yl)-2-methyl-2-(4-(trifluoromethoxy)phenylsulfonamido)propanamide], the IC50 in assay [1] came to 1.32 µM; in assay [2] it was 1.68 µM.

In the case of `CC(C)(NS(=O)(=O)c1cc(C(F)(F)F)ccc1C(F)(F)F)C(=O)NC1C2CC3CC1CC(C(N)=O)(C3)C2` (stereo not shown) [compound 109, N-4-(2-(2,5-bistrifluoromethylphenylsulfonamido)-2-methylpropanamido)adamantane-1-carboxyamide], the results for the IC50 in assay [1] and in assay [2] were 0.045 µM and 1.24 µM, respectively.

With `NC(=O)C12CC3CC(C1)C(NC(=O)C1(NS(=O)(=O)c4cccc(Cl)c4F)CCC1)C(C3)C2` (stereo not shown) [compound 159, N-4-(1-(2-fluoro-3-chlorophenylsulfonamido)cyclobutanecarboxyamido)adamantane-1-carboxyamide], the IC50 came out at 0.096 µM in assay [1] and 0.126 µM in assay [2].

For the compound `CC(C)(NS(=O)(=O)c1cccc(Cl)c1Cl)C(=O)NC1C2CC3CC1CC(O)(C3)C2` (stereo not shown) [compound 73, N-(5-hydroxyadamantane-2-yl)-2-methyl-2-(2,3-dichlorophenylsulfonamido)propanamide], the IC50 in assay [1] turned out to be 0.017 µM; in assay [2], 0.042 µM.

In the case of `CC(C)(NS(=O)(=O)c1ccccc1F)C(=O)NC1C2CC3CC(C2)CC1C3` (stereo not shown) [compound 16, N-(adamantane-2-yl)-2-methyl-2-(2-fluorophenylsulfonamido)propanamide], the IC50 in assay [1] came out at 0.034 µM; in assay [2], 0.255 µM.

Regarding `CC(C)(NS(=O)(=O)c1cccc(F)c1)C(=O)NC1C2CC3CC(C2)CC1C3` (stereo not shown) [compound 30, N-(adamantane-2-yl)-2-methyl-2-(3-fluorophenylsulfonamido)propanamide], the results for the IC50 in assay [1] and in assay [2] were 0.192 µM and 0.462 µM, respectively.

Regarding `O=C(NC1C2CC3CC(C2)CC1C3)C1(NS(=O)(=O)c2ccc([N+](=O)[O-])cc2)CCC1` (stereo not shown) [compound 143, N-(adamantane-2-yl)-1-(4-nitrophenylsulfonamido)cyclobutanecarboxyamide], the IC50 in assay [1] and in assay [2] was over 2.5 µM throughout.

On to `NC(=O)C12CC3CC(C1)C(NC(=O)C1(NS(=O)(=O)c4ccccc4Cl)CC1)C(C3)C2` (stereo not shown) [compound 132, N-4-(1-(2-chlorophenylsulfonamido)cyclopropanecarboxyamido)adamantane-1-carboxyamide], for which the 50% inhibitory concentration (IC50) in assay [1] stood at 0.037 µM; in assay [2], 0.148 µM.

Consider `CC(C)NC(=O)C12CC3CC(C1)C(NC(=O)C(C)(C)NS(=O)(=O)c1ccccc1Br)C(C3)C2` (stereo not shown) [compound 228, 4-[2-(2-bromo-benzenesulfonylamino)-2-methyl-propionylamino]-adamantane-1-carboxylic acid isopropylamide], for which the half-maximal inhibitory concentration (IC50) in assay [1] and in assay [2] was over 2.5 µM throughout.

For `COc1cccc(F)c1S(=O)(=O)N(C)C(C)(C)C(=O)NC1C2CC3CC1CC(C(N)=O)(C3)C2` (stereo not shown) [compound 194, N-4-(2-(2-methoxy-6-fluoro-N-methylphenylsulfonamido)-2-methylpropanamido)adamantane-1-carboxyamide], the IC50 in assay [1] was 0.012 µM; in assay [2], 0.006 µM.

Consider `CC(C)(NS(=O)(=O)c1ccc(Cl)cc1[N+](=O)[O-])C(=O)NC1C2CC3CC1CC(O)(C3)C2` (stereo not shown) [compound 79, N-(5-hydroxyadamantane-2-yl)-2-methyl-2-(4-chloro-2-nitrophenylsulfonamido)propanamide], for which the concentration for half-maximal inhibition (IC50) in assay [1] turned out to be 0.083 µM; in assay [2] it was 0.797 µM.

`CC(C)(NS(=O)(=O)c1ccccc1C(F)(F)F)C(=O)NC1C2CC3CC1CC(O)(C3)C2` (stereo not shown) [compound 72, N-(5-hydroxyadamantane-2-yl)-2-methyl-2-(2-trifluoromethylphenylsulfonamido)propan amide]: the IC50 in assay [1] turned out to be 0.111 µM; in assay [2] it was 0.138 µM.

Take `CC(C)(NS(=O)(=O)c1ccccc1)C(=O)NC1C2CC3CC1CC(O)(C3)C2` (stereo not shown) [compound 70]: the IC50 worked out at 0.093 µM in assay [1] and 0.378 µM in assay [2].

On to `Cc1c(Cl)cccc1S(=O)(=O)N(C)C(C)(C)C(=O)NC1C2CC3CC(C2)CC1C3` (stereo not shown) [compound 200, N-(adamantane-2-yl)-2-(3-chloro-2-methyl-N-methylphenylsulfonamido)-2-methylpropanamide], for which the half-maximal inhibitory concentration (IC50) in assay [1] worked out at 0.023 µM; in assay [2], 0.143 µM.

In the case of `NC(=O)C12CC3CC(C1)C(NC(=O)C1(NS(=O)(=O)c4cc(F)ccc4F)CCC1)C(C3)C2` (stereo not shown) [compound 163, N-4-(1-(2,5-difluorophenylsulfonamido)cyclobutanecarboxyamido)adamantane-1-carboxyamide], the IC50 in assay [1] is 0.373 µM; in assay [2] it was 0.443 µM.

In the case of `CN(C(C)(C)C(=O)NC1C2CC3CC1CC(C(N)=O)(C3)C2)S(=O)(=O)c1ccccc1Cl` (stereo not shown) [compound 190, N-4-(2-(2-chloro-N-methylphenylsulfonamido)-2-methylpropanamido)adamantane-1-carboxyamide], the values for the IC50 in assay [1] and in assay [2] were 0.002 µM and 0.005 µM, respectively.
